{
  "source": "patent US5629289A",
  "about": "“Cyclic peptide antifungal agents” (Eli Lilly and Company, priority 1995, dated 1997)",
  "tested_on": "C. albicans",
  "format": "cell-based",
  "protocol": "Antifungal activity of a test compound is determined in vitro by obtaining the minimum inhibitory concentration (MIC) of the compound using a standard agar dilution test or a disc-diffusion test. The compound is then tested in vivo (in mice) to determine the effective dose of the test compound for controlling a systemic fungal infection. Accordingly, the compound prepared in Example 1C was tested for antifungal activity against C. albicans.",
  "note": "*1 amine or outer side, *2 acyl side, *3 side chain or, on linkers, in order; H or OH if unused. Where a SMILES comes first, the peptide text is derived from it. Bridges are numbered along the chain shown (N, C = ends). [ ]: non-standard residue; d: D form. The star is where a group is joined. ξ: configuration not given here. pTerphenylCO(4''-OnC5H11) = CCCCCOc1ccc(-c2ccc(-c3ccc(C(=O)*)cc3)cc2)cc1; ξOrn(4ξ-OH) = O=C(C(CC(O)CN[*:3])N[*:1])[*:2]; ξhTyr(βOH) = NC(C(=O)O)C(O)Cc1ccc(O)cc1; ξPro(3ξ-OH,4ξ-Me) = CC1CNC(C(=O)O)C1O; ξHyp = O=C(O)C1CC(O)CN1",
  "data": [
    {"smiles": "CCCCCOc1ccc(-c2ccc(-c3ccc(C(=O)NC4CC(O)CNC(=O)C5C(O)C(C)CN5C(=O)CNC(=O)C(C(O)Cc5ccc(O)cc5)NC(=O)C5CC(O)CN5C(=O)CNC4=O)cc3)cc2)cc1", "note": "(stereo not shown) [Example 1C] ({pTerphenylCO(4''-OnC5H11)}-[ξOrn(4ξ-OH)]G[ξHyp][ξhTyr(βOH)]G[ξPro(3ξ-OH,4ξ-Me)]; lactam 1-C)", "values": [
      {"measurement": "minimal inhibitory concentration (MIC) against C. albicans", "value": 0.312, "unit": "µg/mL"}
    ]}
  ]
}
